Test results: patent US7507717B2 (Xenome Ltd., priority 2002, dated 2009)
Residues, ends and D or L forms follow the SMILES beside them.

Biological target: T1, human noradrenaline transporter (hNET) (Homo sapiens, UniProt P23975)
T1 construct: expressed in transfected cells; host or cells: COS-7 cells (ATCC), transient transfection with metafectene
Assay: biochemical
Type: binding
Conditions: for IC50: Av IC50 Displacement of 3H-nisoxetine from hNET

T1 sequence (P23975 whole entry): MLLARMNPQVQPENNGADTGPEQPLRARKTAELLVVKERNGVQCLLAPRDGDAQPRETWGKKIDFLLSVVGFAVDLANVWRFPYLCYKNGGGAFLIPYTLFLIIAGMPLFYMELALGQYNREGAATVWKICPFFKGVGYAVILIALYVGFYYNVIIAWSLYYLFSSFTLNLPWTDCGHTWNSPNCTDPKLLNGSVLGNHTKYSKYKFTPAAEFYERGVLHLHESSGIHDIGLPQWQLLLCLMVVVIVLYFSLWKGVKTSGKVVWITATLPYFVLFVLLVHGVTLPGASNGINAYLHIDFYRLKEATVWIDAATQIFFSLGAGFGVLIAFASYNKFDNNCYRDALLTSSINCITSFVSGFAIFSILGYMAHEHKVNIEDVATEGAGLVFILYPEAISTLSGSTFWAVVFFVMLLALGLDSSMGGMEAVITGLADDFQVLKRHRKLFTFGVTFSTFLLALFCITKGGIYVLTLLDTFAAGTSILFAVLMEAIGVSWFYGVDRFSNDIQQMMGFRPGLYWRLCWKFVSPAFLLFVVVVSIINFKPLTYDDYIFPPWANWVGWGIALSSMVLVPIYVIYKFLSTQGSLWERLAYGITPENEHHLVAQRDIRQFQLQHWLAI

Compound: CC(C)C[C@@H]1NC(=O)[C@H](CCCCN)NC(=O)[C@H](CCCCN)NC(=O)CNC(=O)[C@@H]2CSSC[C@H](NC1=O)C(=O)N[C@@H](Cc1c[nH]cn1)C(=O)N1CCC[C@H]1C(=O)N[C@H](C(N)=O)CSSC[C@H](NC(=O)[C@@H](NC(=O)CNC(=O)[C@H](CC(N)=O)NC(=O)[C@@H](N)Cc1ccc(O)cc1)C(C)C)C(=O)N2 [compound 201] (HELM PEPTIDE1{Y.N.G.V.C.C.G.K.K.L.C.H.P.C.[am]}$PEPTIDE1,PEPTIDE1,5:R3-14:R3|PEPTIDE1,PEPTIDE1,6:R3-11:R3$$$V2.0)
- IC50: 437000 nM

Compound: CC(C)C[C@H](NC(=O)CNC(=O)[C@H](CCCNC(=N)N)NC(=O)[C@@H](N)Cc1c[nH]c2ccccc12)C(=O)N[C@H]1CSSC[C@@H](C(N)=O)NC(=O)CNC(=O)[C@H](CCCNC(=N)N)NC(=O)[C@@H]2CSSC[C@H](NC1=O)C(=O)NCC(=O)N[C@@H](Cc1ccc(O)cc1)C(=O)N[C@@H](CCCCN)C(=O)N[C@@H](CC(C)C)C(=O)N2 [compound 64] (HELM PEPTIDE1{W.R.G.L.C.C.G.Y.K.L.C.R.G.C.[am]}$PEPTIDE1,PEPTIDE1,5:R3-14:R3|PEPTIDE1,PEPTIDE1,6:R3-11:R3$$$V2.0; N-terminus and C-terminus assumed)
- IC50: 191 nM

Compound: CC(C)C[C@@H]1NC(=O)[C@H](Cc2ccccc2)NC(=O)[C@H](Cc2ccc(O)cc2)NC(=O)CNC(=O)[C@@H]2CSSC[C@H](NC1=O)C(=O)N[C@@H](Cc1c[nH]cn1)C(=O)N1CCC[C@H]1C(=O)N[C@H](C(N)=O)CSSC[C@H](NC(=O)[C@@H](NC(=O)CNC(=O)[C@H](CC(N)=O)NC(=O)[C@@H](N)Cc1ccc(O)cc1)C(C)C)C(=O)N2 [compound 179] (HELM PEPTIDE1{Y.N.G.V.C.C.G.Y.F.L.C.H.P.C.[am]}$PEPTIDE1,PEPTIDE1,5:R3-14:R3|PEPTIDE1,PEPTIDE1,6:R3-11:R3$$$V2.0)
- IC50: 25100 nM

Compound: CC(C)C[C@@H]1NC(=O)[C@H](CCCCN)NC(=O)[C@H](Cc2ccc(O)cc2)NC(=O)CNC(=O)[C@@H]2CSSC[C@H](NC1=O)C(=O)N[C@@H](Cc1c[nH]cn1)C(=O)N[C@@H](CCC(=O)O)C(=O)N[C@H](C(N)=O)CSSC[C@H](NC(=O)[C@@H](NC(=O)CNC(=O)[C@@H](N)CC(N)=O)C(C)C)C(=O)N2 [compound 159] (HELM PEPTIDE1{N.G.V.C.C.G.Y.K.L.C.H.E.C.[am]}$PEPTIDE1,PEPTIDE1,4:R3-13:R3|PEPTIDE1,PEPTIDE1,5:R3-10:R3$$$V2.0)
- IC50: 4900 nM

Compound: CC(C)C[C@@H]1NC(=O)[C@H](CCCCN)NC(=O)[C@H](Cc2ccc(O)cc2)NC(=O)CNC(=O)[C@@H]2CSSC[C@H](NC1=O)C(=O)N[C@@H](Cc1c[nH]c3ccccc13)C(=O)N1CCC[C@H]1C(=O)N[C@H](C(N)=O)CSSC[C@H](NC(=O)[C@@H](NC(=O)CNC(=O)[C@H](CC(N)=O)NC(=O)[C@@H](N)Cc1ccc(O)cc1)C(C)C)C(=O)N2 [compound 91]
- IC50: 389 nM

Compound: CC(C)C[C@H](NC(=O)CNC(=O)[C@@H](N)CC(N)=O)C(=O)N[C@H]1CSSC[C@@H](C(N)=O)NC(=O)[C@@H]2CCCN2C(=O)[C@H](Cc2c[nH]cn2)NC(=O)[C@@H]2CSSC[C@H](NC1=O)C(=O)NCC(=O)N[C@@H](Cc1ccc(O)cc1)C(=O)N[C@@H](CCCCN)C(=O)N[C@@H](CC(C)C)C(=O)N2 [compound 97]
- IC50: 501 nM

Compound: CC(C)C[C@@H]1NC(=O)[C@H](CCCCN)NC(=O)[C@H](Cc2ccc(O)cc2)NC(=O)CNC(=O)[C@@H]2CSSC[C@H](NC1=O)C(=O)N[C@@H](Cc1c[nH]cn1)C(=O)N1CCC[C@H]1C(=O)N[C@H](C(N)=O)CSSC[C@H](NC(=O)[C@@H](NC(=O)[C@H](CO)NC(=O)[C@@H](N)CC(N)=O)C(C)C)C(=O)N2 [compound 156] (HELM PEPTIDE1{N.S.V.C.C.G.Y.K.L.C.H.P.C.[am]}$PEPTIDE1,PEPTIDE1,4:R3-13:R3|PEPTIDE1,PEPTIDE1,5:R3-10:R3$$$V2.0)
- IC50: 4270 nM

Compound: CC(C)C[C@@H]1NC(=O)[C@H](CCCCN)NC(=O)[C@H](Cc2ccc(O)cc2)NC(=O)CNC(=O)[C@@H]2CSSC[C@H](NC1=O)C(=O)N[C@@H](CCCNC(=N)N)C(=O)N[C@@H](C)C(=O)N[C@H](C(N)=O)CSSC[C@H](NC(=O)[C@@H](NC(=O)CNC(=O)[C@H](CC(N)=O)NC(=O)[C@@H](N)Cc1ccc(O)cc1)C(C)C)C(=O)N2 [compound 81]
- IC50: 295 nM

Compound: CC[C@H](C)[C@H](NC(=O)CN)C(=O)N[C@@H](CC(C)C)C(=O)N[C@@H](CCCNC(=N)N)C(=O)N[C@@H](CC(N)=O)C(=O)NCC(=O)N[C@H](C(=O)N[C@H]1CSSC[C@@H](C(N)=O)NC(=O)[C@@H]2CCCN2C(=O)[C@H](Cc2c[nH]cn2)NC(=O)[C@@H]2CSSC[C@H](NC1=O)C(=O)NCC(=O)N[C@@H](Cc1ccc(O)cc1)C(=O)N[C@@H](CCCCN)C(=O)N[C@@H](CC(C)C)C(=O)N2)C(C)C [compound 105] (HELM PEPTIDE1{G.I.L.R.N.G.V.C.C.G.Y.K.L.C.H.P.C.[am]}$PEPTIDE1,PEPTIDE1,8:R3-17:R3|PEPTIDE1,PEPTIDE1,9:R3-14:R3$$$V2.0)
- IC50: 759 nM

Compound: CC(C)C[C@H](NC(=O)[C@H](CC(=O)O)NC(=O)[C@H](CCCCN)NC(=O)[C@@H](N)Cc1c[nH]c2ccccc12)C(=O)N[C@H]1CSSC[C@@H](C(N)=O)NC(=O)[C@@H]2CCCN2C(=O)[C@H](Cc2c[nH]c3ccccc23)NC(=O)[C@@H]2CSSC[C@H](NC1=O)C(=O)NCC(=O)N[C@@H](Cc1ccc(O)cc1)C(=O)N[C@@H](CCCCN)C(=O)N[C@@H](CC(C)C)C(=O)N2 [compound 90] (HELM PEPTIDE1{W.K.D.L.C.C.G.Y.K.L.C.W.P.C.[am]}$PEPTIDE1,PEPTIDE1,5:R3-14:R3|PEPTIDE1,PEPTIDE1,6:R3-11:R3$$$V2.0)
- IC50: 355 nM

Compound: CC(C)C[C@@H]1NC(=O)[C@H](CCC(N)=O)NC(=O)[C@H](Cc2ccc(O)cc2)NC(=O)CNC(=O)[C@@H]2CSSC[C@H](NC1=O)C(=O)N[C@@H](Cc1c[nH]cn1)C(=O)N1CCC[C@H]1C(=O)N[C@H](C(N)=O)CSSC[C@H](NC(=O)[C@@H](NC(=O)CNC(=O)[C@@H](N)CC(N)=O)C(C)C)C(=O)N2 [compound 194] (HELM PEPTIDE1{N.G.V.C.C.G.Y.Q.L.C.H.P.C.[am]}$PEPTIDE1,PEPTIDE1,4:R3-13:R3|PEPTIDE1,PEPTIDE1,5:R3-10:R3$$$V2.0)
- IC50: 123000 nM

Compound: YNGVCCGYYLCHPC [compound 212]
- Av IC50 Displacement of 3H-nisoxetine from hNET: −2.00

Compound: CC(C)C[C@@H]1NC(=O)[C@H](CCCCN)NC(=O)[C@H](CC(N)=O)NC(=O)CNC(=O)[C@@H]2CSSC[C@H](NC1=O)C(=O)N[C@@H](Cc1c[nH]cn1)C(=O)N1CCC[C@H]1C(=O)N[C@H](C(N)=O)CSSC[C@H](NC(=O)[C@@H](NC(=O)CNC(=O)[C@H](CC(N)=O)NC(=O)[C@@H](N)Cc1ccc(O)cc1)C(C)C)C(=O)N2 [compound 184] (HELM PEPTIDE1{Y.N.G.V.C.C.G.N.K.L.C.H.P.C.[am]}$PEPTIDE1,PEPTIDE1,5:R3-14:R3|PEPTIDE1,PEPTIDE1,6:R3-11:R3$$$V2.0)
- IC50: 79400 nM

Compound: CC[C@H](C)[C@H](NC(=O)CNC(=O)[C@@H](N)CC(N)=O)C(=O)N[C@H]1CSSC[C@@H](C(N)=O)NC(=O)[C@@H]2CCCN2C(=O)[C@H](Cc2c[nH]cn2)NC(=O)[C@@H]2CSSC[C@H](NC1=O)C(=O)NCC(=O)N[C@@H](Cc1ccc(O)cc1)C(=O)N[C@@H](CCCCN)C(=O)N[C@@H](CC(C)C)C(=O)N2 [compound 125] (HELM PEPTIDE1{N.G.I.C.C.G.Y.K.L.C.H.P.C.[am]}$PEPTIDE1,PEPTIDE1,4:R3-13:R3|PEPTIDE1,PEPTIDE1,5:R3-10:R3$$$V2.0)
- IC50: 1410 nM
